Source: patent US20140194477A1, “KINASE PROTEIN BINDING INHIBITORS” (Roswell Park Cancer Institute, priority 2011, published 2014)

Key:
FAK [1] = molecular target: T1, FAK (Homo sapiens, UniProt Q05397); assay: FAK Y397 phosphorylation; format: biochemical; conditions: various assays
GL261 cells = assay: Tumor growth in glioma syngeneic mouse model (subcutaneous GL261 cells); format: in vivo, mice; conditions: C4 50 mg/kg IP
Protocol: Female SCID mice were purchased six weeks old and were maintained in an animal facility, and all experiments were performed in compliance with NIH animal use guidelines using IACUC protocol. The 2x10^6 U87 cells or GL261 cells were injected into mice subcutaneously. When tumor size reached 100 mm^3, drug was introduced by IP daily, 5 days per week for several weeks. Tumor diameters were measured with calipers and tumor volume in mm^3 was calculated using this formula: tumor volume=(width)^2×Length/2. At the end of the experiment, tumor weight and volume were determined. Tumor samples were collected for Western blotting and for immunohistochemical analysis. Endpoints of anti-tumor efficacy include: 1) differences in tumor size between treated and control animals at termination of the experiment (T/C % and T-C4anal/T-C4%) and 2) differences in blood vessel density and lymphatic vessel density. One hour following the last dose, tumor tissues were snap frozen and Erk1/2, Akt, FAK and VEGFR-3 phosphorylation, as well as total protein levels (to ensure equal loading), were determined ex vivo by Western blot. Tumor tissues were sectioned and stained for total and phosphorylated FAK and VEGFR-3 in addition to TUNEL staining (apoptosis), Ki67 (proliferation), CD31 (angiogenesis) and LYVE1 (lymphangiogenesis). […] Statistical significance was determined at P<0.05.

[2] = 7-day multiple-dose MTD toxicologic study of Suprastin (C4), oral gavage, CD-1 mice; format: in vivo; conditions: both sexes, CD-1, mouse, in vivo; oral gavage in mice, daily for 7 days
Protocol: (§1) • A 7-day, multiple-dose maximum tolerated dose toxicologic study of the drug Suprastin (C4) was performed in CD-1 mice.
(§2) • The drug Suprastin (C4) was the test article. The chemical name for Suprastin is chloropyramine hydrochloride or N-[(4-chlorophenyl) methyl]-N[2-(dimethylamino) ethyl] pyridin-2-amine. The test article was prepared in sterile water. The test article was prepared by the sponsor and delivered to the study director prior to the study. The test article was stored in the refrigerator (4° C.), protected from light. • Control article:
(§3) The CD-1 [Hsd:ICR(CD-1)] albino mouse was used. The CD-1 mouse is conventionally used in toxicity tests to provide information on which human hazards can be judged, and is one of the choices of species preferred by regulatory agencies. Mice were obtained from Harlan (Frederick, Md.).
(§4) Mice were acclimated for 2 days prior to testing. 20 male and 20 female mice, nulliparous and non-pregnant, were used. Normal weight gain, appearance and behavior were factors used to select healthy mice for testing. Only naive animals were used. Mice weighed 23-33 grams (males) and 19-26 grams (females), and were in good health at the start of the study. Mice weighed 22-35 grams (males) and 18-26 grams (females) at the conclusion of the study.
(§5) Mice were randomly assigned to 4 experimental groups (controls, low-dose, medium-dose, and high-dose) consisting of 5 males and 5 females. Mice were identified via cage cards, tail markings, and ear punch. Mouse identification codes contained information regarding experimental group (C=control, L=low-dose, IVI=medium-dose, H=high-dose), sex (M−male, F−female), and animal number (1-5).
(§6) • A 7-day multiple-dose MTD toxicology study was performed.
(§7) • The test article Suprastin (C4) was prepared in sterile water and administered orally (PO) via orogastric gavage as a single daily dose on days 0-6 in the morning. The compound was diluted with the control article (sterile water) so as not to exceed a volume of […]. The test article (Suprastin) was stored in the refrigerator (4° C.) and allowed to come to room temperature prior to administration. Mice were randomly allocated into 4 groups (controls, low-dose, medium-dose, and high-dose) consisting of 5 males and 5 females. Dosages were calculated on a “per mouse” basis, not on a mg/kg basis. Mice in the low-dose group received the equivalent of a 75 mg/kg dose for a 20 g mouse (1.5 mg). Mice in the medium-dose group received the equivalent of a 150 mg/kg dose for a 20 g mouse (3 mg). Mice in the high-dose group received the equivalent of a 300 mg/kg dose for a 20 g mouse (6 mg). Mice in the control group received 100pL of the control article (sterile water). Groups received the following doses, drug concentrations, and gavage volumes, as outlined in Table 4: […]

CD-1 mice = assay: as above; format: in vivo
Protocol: as §1, §2, §3, §4, §5, §6, §7

U87 cells = assay: Tumor growth in glioblastoma mouse model (subcutaneous U87 cells); format: in vivo, mice; conditions: C4 50 mg/kg IP
Protocol: Female SCID mice were purchased six weeks old and were maintained in an animal facility, and all experiments were performed in compliance with NIH animal use guidelines using IACUC protocol. The 2x10^6 U87 cells or GL261 cells were injected into mice subcutaneously. When tumor size reached 100 mm^3, drug was introduced by IP daily, 5 days per week for several weeks. Tumor diameters were measured with calipers and tumor volume in mm^3 was calculated using this formula: tumor volume=(width)^2×Length/2. At the end of the experiment, tumor weight and volume were determined. Tumor samples were collected for Western blotting and for immunohistochemical analysis. Endpoints of anti-tumor efficacy include: 1) differences in tumor size between treated and control animals at termination of the experiment (T/C % and T-C4anal/T-C4%) and 2) differences in blood vessel density and lymphatic vessel density. One hour following the last dose, tumor tissues were snap frozen and Erk1/2, Akt, FAK and VEGFR-3 phosphorylation, as well as total protein levels (to ensure equal loading), were determined ex vivo by Western blot. Tumor tissues were sectioned and stained for total and phosphorylated FAK and VEGFR-3 in addition to TUNEL staining (apoptosis), Ki67 (proliferation), CD31 (angiogenesis) and LYVE1 (lymphangiogenesis). Necropsy was performed to evaluate drug toxicity. Experiments were repeated at least in triplicate, and data were reported as mean ±standard error of the mean. An ANOVA or student's t-test was used as appropriate to compare data between groups. Statistical significance was determined at P<0.05.

DBTRG cells = assay: MTS/clonogenic antiproliferative and cell viability assay, DBTRG cells; format: cell-based; conditions: 72 hours, estimated from MTS and clonogenic assays
Protocol: (§8) MTT assay protocol: Day 1: cells plated in 96-well plates. Day 2: chemical agents (DMSO) are added to the wells containing cells(in triplicate). Day 3: 100 μM of MTS reagent is added to each well; ager incubating the plates for an hour, readings are taken using a spectrometer.

U-87 cells = assay: MTS/clonogenic antiproliferative and cell viability assay, U-87 cells; format: cell-based; conditions: Homo sapiens, U-87 MG, 72 hours, estimated from MTS and clonogenic assays
Protocol: as §8

[3] = literature report; cited from earlier work
IGFR kinase = IGFR kinase (Homo sapiens, UniProt P08069); conditions: literature report; cited from earlier work
IGFR kinase, sequence (P08069 31-1367): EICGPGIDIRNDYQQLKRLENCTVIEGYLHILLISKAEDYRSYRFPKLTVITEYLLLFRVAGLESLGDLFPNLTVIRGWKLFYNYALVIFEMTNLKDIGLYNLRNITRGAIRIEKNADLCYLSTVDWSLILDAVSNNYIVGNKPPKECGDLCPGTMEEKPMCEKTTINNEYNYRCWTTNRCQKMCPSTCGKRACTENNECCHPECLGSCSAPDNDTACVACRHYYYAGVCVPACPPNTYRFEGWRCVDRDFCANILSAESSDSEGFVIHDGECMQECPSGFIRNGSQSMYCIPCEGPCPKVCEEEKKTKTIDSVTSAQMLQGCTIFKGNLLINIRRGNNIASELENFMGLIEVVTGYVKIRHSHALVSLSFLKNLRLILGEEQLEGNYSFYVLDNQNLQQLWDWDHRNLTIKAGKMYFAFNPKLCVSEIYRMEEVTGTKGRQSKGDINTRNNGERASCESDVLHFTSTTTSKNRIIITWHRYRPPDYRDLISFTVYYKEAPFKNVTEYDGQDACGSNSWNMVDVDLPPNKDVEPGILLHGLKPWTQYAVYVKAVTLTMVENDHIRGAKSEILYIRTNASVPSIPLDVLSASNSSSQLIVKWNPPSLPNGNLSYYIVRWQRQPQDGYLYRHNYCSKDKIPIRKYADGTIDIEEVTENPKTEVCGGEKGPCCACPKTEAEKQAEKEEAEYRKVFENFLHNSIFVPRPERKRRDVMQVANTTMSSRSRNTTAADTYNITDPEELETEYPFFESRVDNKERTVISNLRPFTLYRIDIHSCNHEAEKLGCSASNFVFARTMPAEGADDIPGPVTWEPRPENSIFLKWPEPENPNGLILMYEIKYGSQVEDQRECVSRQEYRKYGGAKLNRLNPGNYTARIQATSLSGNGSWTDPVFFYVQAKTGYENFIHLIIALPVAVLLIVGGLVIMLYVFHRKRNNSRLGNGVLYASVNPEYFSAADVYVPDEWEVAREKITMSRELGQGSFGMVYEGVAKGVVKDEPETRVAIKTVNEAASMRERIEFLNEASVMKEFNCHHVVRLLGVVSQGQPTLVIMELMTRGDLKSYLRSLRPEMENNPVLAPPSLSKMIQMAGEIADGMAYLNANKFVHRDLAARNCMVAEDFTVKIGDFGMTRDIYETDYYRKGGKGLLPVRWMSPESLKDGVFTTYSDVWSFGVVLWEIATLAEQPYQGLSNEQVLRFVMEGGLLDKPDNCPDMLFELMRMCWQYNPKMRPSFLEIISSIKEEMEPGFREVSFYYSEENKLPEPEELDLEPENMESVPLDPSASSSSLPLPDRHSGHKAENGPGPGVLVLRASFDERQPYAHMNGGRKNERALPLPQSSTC

glioma and ovarian tumor = conditions: literature report; cited from earlier work
FAK [4] = molecular target: T1, FAK; conditions: literature report; cited from earlier work

T1 sequence (Q05397 whole entry): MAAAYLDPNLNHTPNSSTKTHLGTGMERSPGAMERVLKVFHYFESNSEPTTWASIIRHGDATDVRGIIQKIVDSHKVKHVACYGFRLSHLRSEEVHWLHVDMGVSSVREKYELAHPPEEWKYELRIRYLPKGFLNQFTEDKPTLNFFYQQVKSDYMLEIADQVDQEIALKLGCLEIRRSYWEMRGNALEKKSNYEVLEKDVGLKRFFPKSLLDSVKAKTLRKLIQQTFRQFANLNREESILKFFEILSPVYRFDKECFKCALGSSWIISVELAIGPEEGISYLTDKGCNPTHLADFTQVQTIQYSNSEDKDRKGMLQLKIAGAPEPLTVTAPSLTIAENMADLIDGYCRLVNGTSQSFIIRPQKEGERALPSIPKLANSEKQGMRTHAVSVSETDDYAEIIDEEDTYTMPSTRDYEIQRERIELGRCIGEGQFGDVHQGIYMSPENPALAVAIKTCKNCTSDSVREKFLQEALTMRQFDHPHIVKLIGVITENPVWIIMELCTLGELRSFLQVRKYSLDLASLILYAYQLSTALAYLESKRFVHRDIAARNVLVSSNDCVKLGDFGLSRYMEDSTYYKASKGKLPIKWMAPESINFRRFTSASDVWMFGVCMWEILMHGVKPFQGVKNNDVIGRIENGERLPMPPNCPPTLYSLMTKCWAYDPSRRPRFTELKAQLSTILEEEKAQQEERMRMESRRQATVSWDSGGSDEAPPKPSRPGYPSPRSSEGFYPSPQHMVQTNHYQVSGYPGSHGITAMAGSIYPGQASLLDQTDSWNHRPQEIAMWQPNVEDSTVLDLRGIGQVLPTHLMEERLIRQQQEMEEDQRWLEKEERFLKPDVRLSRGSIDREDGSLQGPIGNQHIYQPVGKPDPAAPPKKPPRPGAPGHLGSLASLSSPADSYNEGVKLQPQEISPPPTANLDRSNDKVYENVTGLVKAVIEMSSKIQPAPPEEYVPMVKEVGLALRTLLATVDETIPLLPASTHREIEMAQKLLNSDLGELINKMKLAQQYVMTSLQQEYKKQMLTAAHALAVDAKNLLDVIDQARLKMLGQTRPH

CN(C)CCN(Cc1ccc(Cl)cc1)c1ccccn1 [C4, N′-[(4-chlorophenyl)methyl]-N,N-dimethyl-N′-pyridin-2-yl-ethane-1,2-diamine]
FAK dephosphorylation (FAK [1]): specifically dephosphorylates FAK
tumor growth reduction (tumor weight) (GL261 cells; after 3 weeks of treatment): 57%
weight of treated tumors vs control group (GL261 cells; after 23 days of treatment): significantly smaller
MTD at 7 days [2]: ≥ 150 mg/kg
clinical signs, low- and medium-dose groups (CD-1 mice; mouse, in vivo): slight ruffled fur
toxicity findings, high-dose group (CD-1 mice; mouse, in vivo, po, 300 mg/kg): weight loss, severe clinical signs of abdominal distention, and mortality due to gastrointestinal dilatation
mortality and body weight, low- and medium-dose groups (CD-1 mice; oral gavage daily days 0-6, 75 and 150 mg/kg): no mortality or decrement in mean body weight
tumor growth reduction (tumor weight) (U87 cells; after 4 weeks of treatment): 71.7%
tumor volume smaller in the treated group (U87 cells; after 4 weeks of treatment): 58%
size of treated tumors vs control group (U87 cells; after 9 days of treatment): significantly smaller
weight of treated tumors vs control group (U87 cells; after 27 days of treatment): significantly smaller
IC50 (DBTRG cells): 50 to 100 µM
IC50 (U-87 cells): 50 to 100 µM

CS(=O)(=O)c1cccc(CNc2nc(Nc3ccc4c(c3)CCC(=O)N4)ncc2C(F)(F)F)c1 [PF-573,228]
cell growth and survival in vitro [3]: did not inhibit cell growth and survival in vitro
cell motility [3]: inhibited only motility

CNC(=O)c1ccccc1Nc1nc(Nc2ccc(N3CCOCC3)cc2OC)ncc1Cl [TAE226]
IGFR kinase inhibition (IGFR kinase): inhibited IGFR kinase
tumor growth in vivo (glioma and ovarian tumor): inhibited glioma and ovarian tumor growth in vivo
Y397-FAK phosphorylation (FAK [4]): effectively blocked
